Measurements reported in US7452887B2, “Quinoline- and isoquinoline-based compounds exhibiting ATP-utilizing enzyme inhibitory activity, and compositions, and uses thereof” (Amphora Discovery Corporation, priority 2004, dated 2008).
Values belong to the molecule of their own block, whether it stands above or below them.

What was measured:
Experiment in all cases: HTS ATP-utilizing enzyme assay, off-chip mobility-shift (Caliper HTS 250)
Format in all cases: biochemical
Conditions in all cases: test compound 10 μM, kinase listed = active (greater than six-sigma from the mean activity of inactive compounds)
PDGFR-α = PDGFR-α (Homo sapiens, UniProt P16234)
Sequence of PDGFR-α (P16234 24-1089): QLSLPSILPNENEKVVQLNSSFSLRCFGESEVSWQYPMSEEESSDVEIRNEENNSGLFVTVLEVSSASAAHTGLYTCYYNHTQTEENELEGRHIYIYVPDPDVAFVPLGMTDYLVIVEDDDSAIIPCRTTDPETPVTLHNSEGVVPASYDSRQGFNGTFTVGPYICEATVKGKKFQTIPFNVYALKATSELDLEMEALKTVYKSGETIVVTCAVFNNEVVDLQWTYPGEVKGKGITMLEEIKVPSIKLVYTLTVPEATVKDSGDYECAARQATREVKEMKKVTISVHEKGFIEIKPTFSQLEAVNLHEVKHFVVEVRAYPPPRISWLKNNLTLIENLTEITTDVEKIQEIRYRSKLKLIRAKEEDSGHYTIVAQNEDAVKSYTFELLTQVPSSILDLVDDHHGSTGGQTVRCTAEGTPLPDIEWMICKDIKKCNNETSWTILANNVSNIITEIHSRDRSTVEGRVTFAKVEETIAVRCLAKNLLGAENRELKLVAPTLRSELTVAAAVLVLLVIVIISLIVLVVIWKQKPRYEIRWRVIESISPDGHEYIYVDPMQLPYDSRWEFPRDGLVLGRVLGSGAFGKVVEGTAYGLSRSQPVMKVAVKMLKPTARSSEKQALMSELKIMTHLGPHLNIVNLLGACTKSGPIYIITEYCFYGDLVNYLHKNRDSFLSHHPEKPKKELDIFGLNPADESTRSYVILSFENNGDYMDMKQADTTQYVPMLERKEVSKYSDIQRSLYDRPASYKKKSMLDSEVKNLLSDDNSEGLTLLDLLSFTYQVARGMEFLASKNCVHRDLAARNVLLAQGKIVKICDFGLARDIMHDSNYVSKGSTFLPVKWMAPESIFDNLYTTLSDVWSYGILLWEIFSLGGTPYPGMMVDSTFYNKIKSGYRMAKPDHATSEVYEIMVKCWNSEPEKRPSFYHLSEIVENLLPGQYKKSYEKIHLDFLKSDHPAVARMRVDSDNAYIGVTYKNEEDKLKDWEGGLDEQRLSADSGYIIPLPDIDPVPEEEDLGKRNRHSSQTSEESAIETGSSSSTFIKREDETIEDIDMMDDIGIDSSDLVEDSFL
In short: (§1)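 The ratio of peptide substrate to phosphorylated product, measured by microfluidic mobility shift, gave percent inhibition. Reactions contained enzyme, peptide substrate and compound at 10 μM in HEPES pH 7.5 buffer, ran 2.5 hrs at 20° C. to 22° C., and were quenched with EDTA.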

LYNA = LYNA (Homo sapiens, UniProt P07948)
Sequence of LYNA (P07948 whole entry): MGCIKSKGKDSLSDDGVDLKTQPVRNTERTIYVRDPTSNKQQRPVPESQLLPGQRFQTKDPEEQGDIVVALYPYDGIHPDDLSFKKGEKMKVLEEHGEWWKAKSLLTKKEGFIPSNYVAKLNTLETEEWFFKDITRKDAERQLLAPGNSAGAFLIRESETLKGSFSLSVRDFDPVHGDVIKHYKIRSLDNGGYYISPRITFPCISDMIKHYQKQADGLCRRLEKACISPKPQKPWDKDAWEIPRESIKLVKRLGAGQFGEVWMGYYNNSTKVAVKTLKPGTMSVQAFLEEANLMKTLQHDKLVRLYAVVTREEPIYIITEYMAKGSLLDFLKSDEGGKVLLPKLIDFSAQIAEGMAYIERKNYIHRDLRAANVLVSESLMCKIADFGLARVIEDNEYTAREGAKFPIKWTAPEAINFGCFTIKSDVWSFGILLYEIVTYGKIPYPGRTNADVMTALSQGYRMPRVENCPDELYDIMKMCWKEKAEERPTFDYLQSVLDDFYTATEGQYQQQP
In short: as §1

SYK = SYK (Homo sapiens, UniProt P43405)
In short: as §1

CHEK2 = CHEK2 (Homo sapiens, UniProt O96017)
Sequence of CHEK2 (O96017 whole entry): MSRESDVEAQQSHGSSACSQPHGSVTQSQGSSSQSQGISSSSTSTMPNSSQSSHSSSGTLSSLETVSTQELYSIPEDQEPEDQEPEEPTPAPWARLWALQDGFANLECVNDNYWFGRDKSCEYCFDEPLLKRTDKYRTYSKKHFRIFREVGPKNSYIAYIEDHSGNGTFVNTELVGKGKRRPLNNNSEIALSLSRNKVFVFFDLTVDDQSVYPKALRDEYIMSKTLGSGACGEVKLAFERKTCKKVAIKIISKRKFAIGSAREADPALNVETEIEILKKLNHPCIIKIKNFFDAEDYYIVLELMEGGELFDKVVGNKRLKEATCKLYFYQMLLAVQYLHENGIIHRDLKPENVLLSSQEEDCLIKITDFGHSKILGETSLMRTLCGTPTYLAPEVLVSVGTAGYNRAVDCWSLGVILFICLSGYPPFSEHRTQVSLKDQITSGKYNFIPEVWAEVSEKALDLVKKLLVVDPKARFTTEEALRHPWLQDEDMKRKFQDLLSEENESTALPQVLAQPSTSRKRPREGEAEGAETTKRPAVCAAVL
In short: as §1

NEK2 = target: T1, NEK2 (Homo sapiens, UniProt P51955)
T1 sequence (P51955 1-445): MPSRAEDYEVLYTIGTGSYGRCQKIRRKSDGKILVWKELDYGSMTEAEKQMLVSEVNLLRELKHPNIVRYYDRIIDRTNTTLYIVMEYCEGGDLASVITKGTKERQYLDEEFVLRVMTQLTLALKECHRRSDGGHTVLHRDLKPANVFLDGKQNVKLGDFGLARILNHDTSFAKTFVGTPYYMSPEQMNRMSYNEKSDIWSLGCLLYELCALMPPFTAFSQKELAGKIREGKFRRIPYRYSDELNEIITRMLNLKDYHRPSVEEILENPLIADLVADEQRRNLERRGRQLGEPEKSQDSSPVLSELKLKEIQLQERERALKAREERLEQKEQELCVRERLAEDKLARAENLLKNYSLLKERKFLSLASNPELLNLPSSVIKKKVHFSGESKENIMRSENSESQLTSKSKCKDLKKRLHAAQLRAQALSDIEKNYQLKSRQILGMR
In short: as §1

CDK1/cyclin B = CDK1/cyclin B (Homo sapiens, UniProt P06493)
Sequence of CDK1/cyclin B (P06493 whole entry): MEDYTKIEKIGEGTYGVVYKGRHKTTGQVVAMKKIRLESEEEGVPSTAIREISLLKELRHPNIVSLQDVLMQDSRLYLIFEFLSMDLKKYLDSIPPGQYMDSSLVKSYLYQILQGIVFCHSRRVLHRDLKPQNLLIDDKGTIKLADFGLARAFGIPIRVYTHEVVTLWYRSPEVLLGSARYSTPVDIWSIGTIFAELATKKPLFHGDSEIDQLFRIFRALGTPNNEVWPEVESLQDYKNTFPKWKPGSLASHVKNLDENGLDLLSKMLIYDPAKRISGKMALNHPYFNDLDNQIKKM
Sequence of CDK1/cyclin B (P14635 whole entry partner): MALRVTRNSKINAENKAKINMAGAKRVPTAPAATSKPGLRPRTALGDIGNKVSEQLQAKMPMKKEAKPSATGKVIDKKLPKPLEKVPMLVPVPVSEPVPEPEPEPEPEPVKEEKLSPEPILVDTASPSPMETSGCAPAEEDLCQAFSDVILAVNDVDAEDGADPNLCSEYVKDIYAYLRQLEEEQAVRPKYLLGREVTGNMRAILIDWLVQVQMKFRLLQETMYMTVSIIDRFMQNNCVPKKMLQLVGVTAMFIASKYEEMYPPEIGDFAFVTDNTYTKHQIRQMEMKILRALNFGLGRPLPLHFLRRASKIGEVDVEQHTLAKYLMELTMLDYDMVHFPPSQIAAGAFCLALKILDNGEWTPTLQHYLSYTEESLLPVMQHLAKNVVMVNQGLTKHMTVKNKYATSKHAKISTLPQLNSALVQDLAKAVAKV
In short: as §1

SRC = SRC (Homo sapiens, UniProt P12931)
In short: as §1

AKT3 = AKT3 (Homo sapiens, UniProt Q9Y243)
In short: as §1

LCK = LCK (Homo sapiens, UniProt P06239)
In short: as §1

ABL1 = ABL1 (Homo sapiens, UniProt P00519)
In short: as §1

AKT1 = AKT1 (Homo sapiens, UniProt P31749)
In short: as §1

GSK3-α = GSK3-α (Homo sapiens, UniProt P49840)
Sequence of GSK3-α (P49840 whole entry): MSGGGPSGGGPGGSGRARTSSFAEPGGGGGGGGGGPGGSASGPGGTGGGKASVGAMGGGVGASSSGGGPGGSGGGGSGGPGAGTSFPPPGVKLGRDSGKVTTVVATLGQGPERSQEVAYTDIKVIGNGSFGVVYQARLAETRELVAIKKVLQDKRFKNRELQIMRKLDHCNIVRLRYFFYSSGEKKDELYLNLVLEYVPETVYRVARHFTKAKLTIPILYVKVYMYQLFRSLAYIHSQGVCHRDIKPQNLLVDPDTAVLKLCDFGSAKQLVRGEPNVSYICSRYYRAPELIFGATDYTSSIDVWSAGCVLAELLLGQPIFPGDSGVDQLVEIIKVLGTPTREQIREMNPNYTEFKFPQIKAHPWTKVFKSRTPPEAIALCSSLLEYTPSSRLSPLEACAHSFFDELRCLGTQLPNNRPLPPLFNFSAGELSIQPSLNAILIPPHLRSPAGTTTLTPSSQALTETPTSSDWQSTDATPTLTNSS
In short: as §1

ROCK2 = ROCK2 (Homo sapiens, UniProt O75116)
Sequence of ROCK2 (O75116 whole entry): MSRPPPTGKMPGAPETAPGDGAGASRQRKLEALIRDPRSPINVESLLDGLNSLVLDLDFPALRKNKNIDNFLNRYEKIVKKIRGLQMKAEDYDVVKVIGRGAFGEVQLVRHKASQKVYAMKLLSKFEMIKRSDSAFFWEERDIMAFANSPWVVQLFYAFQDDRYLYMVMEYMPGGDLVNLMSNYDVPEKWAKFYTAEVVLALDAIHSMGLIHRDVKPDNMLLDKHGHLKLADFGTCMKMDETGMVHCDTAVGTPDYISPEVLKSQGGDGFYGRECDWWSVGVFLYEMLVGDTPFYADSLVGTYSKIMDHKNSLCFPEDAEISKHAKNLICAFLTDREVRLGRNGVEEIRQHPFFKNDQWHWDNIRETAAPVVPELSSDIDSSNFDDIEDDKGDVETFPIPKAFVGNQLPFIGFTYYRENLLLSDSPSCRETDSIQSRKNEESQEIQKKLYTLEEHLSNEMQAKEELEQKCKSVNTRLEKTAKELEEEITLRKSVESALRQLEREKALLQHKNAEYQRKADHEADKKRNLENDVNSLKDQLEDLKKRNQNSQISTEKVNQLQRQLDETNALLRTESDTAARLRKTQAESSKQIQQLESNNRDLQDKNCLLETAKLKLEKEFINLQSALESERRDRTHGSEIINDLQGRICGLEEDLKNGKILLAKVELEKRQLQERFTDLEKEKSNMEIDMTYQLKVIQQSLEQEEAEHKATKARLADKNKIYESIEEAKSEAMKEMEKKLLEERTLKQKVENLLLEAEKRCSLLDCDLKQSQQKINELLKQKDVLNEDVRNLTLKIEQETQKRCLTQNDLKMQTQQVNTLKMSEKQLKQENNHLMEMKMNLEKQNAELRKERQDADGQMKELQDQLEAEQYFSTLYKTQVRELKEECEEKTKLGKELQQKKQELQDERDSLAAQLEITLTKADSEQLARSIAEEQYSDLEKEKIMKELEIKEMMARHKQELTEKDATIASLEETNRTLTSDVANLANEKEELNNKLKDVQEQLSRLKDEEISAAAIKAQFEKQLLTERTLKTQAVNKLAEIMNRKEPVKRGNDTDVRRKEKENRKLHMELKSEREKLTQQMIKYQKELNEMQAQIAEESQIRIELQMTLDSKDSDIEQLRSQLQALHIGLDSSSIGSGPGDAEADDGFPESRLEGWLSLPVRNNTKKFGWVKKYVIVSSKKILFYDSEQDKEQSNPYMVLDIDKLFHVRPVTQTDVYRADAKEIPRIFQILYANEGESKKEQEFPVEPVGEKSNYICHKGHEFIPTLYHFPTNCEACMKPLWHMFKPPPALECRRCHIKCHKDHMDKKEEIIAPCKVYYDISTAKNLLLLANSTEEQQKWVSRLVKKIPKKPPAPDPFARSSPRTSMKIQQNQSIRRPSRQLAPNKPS
In short: as §1

MSK1 = MSK1 (Homo sapiens, UniProt O75582)
In short: as §1

GSK-3-β = GSK-3-β (Homo sapiens, UniProt P49841)
In short: as §1

CDK5 = CDK5 (Homo sapiens, UniProt Q00535)
In short: as §1

Compound: COc1ccc(-c2ccc3nccc(N(C)c4ccc(N5CCN(C)CC5)cc4)c3c2)cc1 [6-(4-methoxyphenyl)-N-methyl-N-(4-(4-methylpiperazin-1-yl)phenyl)quinolin-4-amine]
- Activity (PDGFR-α): PDGFR-α

Compound: c1ccc(-c2ccc3nccc(Nc4ccc(N5CCNCC5)cc4)c3c2)cc1 [6-phenyl-N-(4-(piperazin-1-yl)phenyl)quinolin-4-amine]
- Activity (PDGFR-α): PDGFR-α
- Activity (LYNA): LYNA

Compound: COc1ccc(-c2ccc3nccc(Nc4ccc(N5CCNCC5)cc4)c3c2)cc1 [6-(4-methoxyphenyl)-N-(4-(piperazin-1-yl)phenyl)quinolin-4-amine]
- Activity (CDK1/cyclin B): CDK1/cyclin B

Compound: CN1CCN(c2ccc(Nc3ccnc4ccc(-c5ccc(F)cc5)cc34)cc2)CC1 [6-(4-fluorophenyl)-N-(4-(4-methylpiperazin-1-yl)phenyl)quinolin-4-amine]
- Activity (GSK3-α): GSK3-α
- Activity (NEK2): NEK2

Compound: CN1CCN(c2ccc(Nc3ccnc4ccc(-c5ccc(O)cc5)cc34)cc2)CC1 [4-(4-(4-(4-methylpiperazin-1-yl)phenylamino)quinolin-6-yl)phenol]
- Activity (ROCK2): ROCK2

The next lines start with the values.

- Activity (SYK): SYK
- Activity (CHEK2): CHEK2
- Activity (NEK2): NEK2
Compound: CN1CCN(c2ccc(Nc3ccnc4ccc(-c5ccc6ccccc6c5)cc34)cc2)CC1 [N-(4-(4-methylpiperazin-1-yl)phenyl)-6-(naphthalen-2-yl)quinolin-4-amine]

- Activity (NEK2): NEK2
Compound: Cc1ccccc1-c1ccc2nccc(Nc3ccc(N4CCN(C)CC4)cc3)c2c1 [N-(4-(4-methylpiperazin-1-yl)phenyl)-6-o-tolylquinolin-4-amine]

- Activity (SRC): SRC
- Activity (CDK1/cyclin B): CDK1/cyclin B
- Activity (AKT3): AKT3
- Activity (SYK): SYK
- Activity (CHEK2): CHEK2
- Activity (NEK2): NEK2
- Activity (LYNA): LYNA
- Activity (LCK): LCK
- Activity (ABL1): ABL1
Compound: CN1CCN(c2ccc(Nc3ccnc4ccc(-c5cccc6ccccc56)cc34)cc2)CC1 [N-(4-(4-methylpiperazin-1-yl)phenyl)-6-(naphthalen-1-yl)quinolin-4-amine]

- Activity (AKT1): AKT1
- Activity (GSK3-α): GSK-3-α
- Activity (ROCK2): ROCK2
- Activity (AKT3): AKT3
- Activity (MSK1): MSK1
- Activity (GSK-3-β): GSK-3-β
- Activity (NEK2): NEK2
- Activity (CDK5): CDK5
Compound: CN1CCN(c2ccc(Nc3ccnc4ccc(-c5ccncc5)cc34)cc2)CC1 [N-(4-(4-methylpiperazin-1-yl)phenyl)-6-(pyridin-4-yl)quinolin-4-amine]
